System: disease model cells (neurons derived from the 1464R cell line forcibly expressing wild-type and mutant TDP-43)
Experiment: RNA-seq gene expression analysis in disease model cells
Type: cell-based, rat
Method: Using both vectors (a) and (b), the differentiated cell line in the infection medium was infected with adenovirus at a multiplicity of infection of 50, and cultured for 24 hours. As a result, neurons derived from the 1464R cell line, in which both wild-type and mutant TDP-43 were forcibly expressed intracellularly (hereinafter, also referred to as disease model cells), were obtained.
In the present evaluation, a 6-well plate treated with poly-L-lysine was used, cells were seeded at a density of 1×10^6 cells per well, cultured under the conditions of (1) of Example 1, and differentiated cells were used.
(3) Group 3 (TDP-43+EA exposed group; represented as ‘Group 3’ in FIG. 4 and FIGS. 7-11): After preparing the disease model cells expressing TDP-43, the cells were cultured in differentiation medium free of Eda but containing EA (final concentration 20 μmol/L) for 24 hours. This experimental group forcibly expresses TDP-43 and simulates conditions where the target has a neurodegenerative disease and remains untreated.
(4) Group 4 (TDP-43+EA+Eda exposed group; represented as ‘Group 4’ in FIG. 4 and FIGS. 7-11): After preparing the disease model cells expressing TDP-43, the cells were cultured in differentiation medium containing Eda (final concentration 50 μmol/L) but free of EA for 24 hours. After that, EA (final concentration 20 μmol/L) was further added, and the cells were further cultured for an additional 24 hours. This experimental group simulates conditions where the target with a neurodegenerative disease is administered or exposed to Eda.
After the culture was completed, cell pellets containing 1×10^6 or more cells were obtained from the experimental groups (1)-(4). Total RNA was extracted from these cell pellets using NucleoSpin RNA (manufactured by Macherey-Nagel) according to a product protocol.
Using the extracted total RNA (1.0 ng) as a template, double-stranded cDNA was synthesized using the SMART method using the SMART-Seq v4 Ultra (registered trademark) Low Input RNA Kit for Sequencing (manufactured by Clontech) according to a product protocol.
Next, using the NovaSeq6000 system (NovaSeq6000 S4 reagent kit, NovaSeq Xp4 lane kit, and NovaSeq control software (version 1.6.0); all manufactured by Illumina), sequences of the cDNA library were determined according to a product protocol.
Next, using the DRAGEN Bio-IT platform software (version 3.6.3, manufactured by Illumina) and referring to the rat genome assembly (version 6.0, top-level) and transcript annotation (release 101) obtained from the Ensembl database, types and abundance of genes were identified from the 150-base sequence information contained in the FASTQ files mentioned above.
An RNA expression level (TPM) of a transcription product i measured from the cDNA library of the experimental groups was calculated based on alignment to the rat genome and transcription product annotation from the Ensembl database, according to the following equation (A).
Differential expression analysis was performed using DESeq2 (a package for two-group comparison) in the statistical analysis software R (version 3.6.0) to calculate a log 2 ratio of RNA expression levels and a significance test. The log 2 ratio is a value expressed as “log 2 ([expression level of a first measurement target]/[expression level of a second measurement target]).”
The significance test was performed based on a p-value calculated by Wald test with multiple testing correction based on the Benjamini-Hochberg method (BH method).
In the present analysis, a gene with an absolute log 2 ratio of 1 or more (expression change ratio of 2.0 times or more or 0.50 times or less) and a p-value of 0.01 or less from the Wald test between any two groups was identified as a “gene with a change in expression level” (differentially expressed gene; DEG).
The X-axis represents a first principal component, and the Y-axis represents a second principal component, with their respective contribution rates expressed as percentages. […]

[1] = Group 3 (TDP43 + EA) vs Group 2 (Eda)
[2] = Group 4 (TDP43 + EA + Eda) vs Group 1 (control)
[3] = Group 4 (TDP43 + EA + Eda) vs Group 2 (Eda)
[4] = Group 4 (TDP43 + EA + Eda) vs Group 3 (TDP43 + EA)
[5] = Group 4 (TDP43+EA+Eda 50 μmol/L) vs Group 3 (TDP43+EA), RNA expression
[6] = in the presence of edaravone, TDP-43 mutant protein present

For `CC1=NN(c2ccccc2)C(=O)C1` [edaravone, 5-methyl-2-phenyl-2,4-dihydro-3H-pyrazol-3-one], the “number of downregulated genes (DEGs)” value [1] was 478, the “number of upregulated genes (DEGs)” value [1] was 876 and the “number of downregulated genes (DEGs)” value [2] was 1,095. The “number of upregulated genes (DEGs)” value [2] was 1,654, the “number of downregulated genes (DEGs)” value [3] was 1,130 and the “number of upregulated genes (DEGs)” value [3] was 1,661. The “number of downregulated genes (DEGs)” value [4] was 260, the “number of upregulated genes (DEGs)” value [4] was 169 and the “gene expression profile (principal component analysis of RNA-seq data)” value (Group 4 (TDP43 + EA + Eda) vs Group 3 (TDP43 + EA), FIG. 6) was “distinctly different gene expression profiles”. For the same molecule, the “Group 4 to Group 3 log2 ratio: Acsl6 (acyl-CoA synthetase long-chain family member 6)” value [5] was −1.582, the “Group 4 to Group 3 log2 ratio: Cebpb (CCAAT/enhancer binding protein beta)” value [5] was 1.661 and the “Group 4 to Group 3 log2 ratio: Glrx (glutaredoxin)” value [5] was −1.262. The “Group 4 to Group 3 log2 ratio: Ho-1 (hemeoxygenase 1)” value [5] was 1.755, the “Group 4 to Group 3 log2 ratio: HspaS (heat shock protein family A (Hsp70) member 8)” value [5] was 1.151 and the “Group 4 to Group 3 log2 ratio: Hsph1 (heat shock protein family H (Hsp110) member 1)” value [5] was 1.027. The “Group 4 to Group 3 log2 ratio: Mt1 (metallothionein 1)” value [5] was −1.392, the “Group 4 to Group 3 log2 ratio: Nefl (neurofilament light)” value [5] was −1.778 and the “Group 4 to Group 3 log2 ratio: Nfe2l2 (nuclear factor, erythroid 2-like 2)” value [5] was 0.923. The “Group 4 to Group 3 log2 ratio: Nup43 (nucleoporin 43)” value [5] was −0.888, the “Group 4 to Group 3 log2 ratio: Pik3cb” value [5] was 1.157 and the “Group 4 to Group 3 log2 ratio: Plcg2 (phospholipase C, gamma 2)” value [5] was 0.881. For the same molecule, the “Group 4 to Group 3 log2 ratio: Plpp3 (phospholipid phosphatase 3)” value [5] was 1.307, the “Group 4 to Group 3 log2 ratio: Ptgds (prostaglandin D2 synthase)” value [5] was 0.954 and the “Group 4 to Group 3 log2 ratio: Sqstm1 (sequestosome 1)” value [5] was 1.225. The “Group 4 to Group 3 log2 ratio: Txndc2 (thioredoxin domain containing 2)” value [5] was 1.153, the “log 2 ratio Group 4/Group 3: Alpl (ALPL)” value (Group 4 (TDP43+EA+Eda 50 μmol/L) vs Group 3 (TDP43+EA), RNA expression, DESeq2) was −1.098 and the “expression level of a gene product of ALPL” value [6] was “decreases”. The “expression level of a gene product of ASF1B” value [6] was “decreases”, the “expression level of a gene product of DCTD” value [6] was “decreases” and the “expression level of a gene product of FAIM2” value [6] was “increases”. For the same molecule, the “expression level of a gene product of FCSK” value [6] was “decreases”, the “expression level of a gene product of HAUS4” value [6] was “decreases” and the “expression level of a gene product of ITGB4” value [6] was “decreases”. For the same molecule, the “expression level of a gene product of KAZALD1” value [6] was “decreases”, the “expression level of a gene product of MAST1” value [6] was “decreases” and the “expression level of a gene product of MT2A” value [6] was “decreases”. The “expression level of a gene product of NTM” value [6] was “decreases”, the “expression level of a gene product of PTTG1” value [6] was “decreases” and the “expression level of a gene product of SBK1” value [6] was “decreases”. For the same molecule, the “expression level of a gene product of SCN2A” value [6] was “decreases” and the “expression level of a gene product of UBE2L6” value [6] was “decreases”.
